The results in this text go back to ChEMBL document CHEMBL5331114, “Discovery of Pyxinol Amide Derivatives Bearing Amino Acid Residues as Nonsubstrate Allosteric Inhibitors of P-Glycoprotein-Mediated Multidrug Resistance” (J Med Chem, 2023).

Series [1] in a line: Cytotoxicity against human KBV Cells assessed as cell survival rate at 10 uM incubated for 72 hrs by MTT assay. Type of series: functional. As to conditions: read-out: Survival; call rule not given here. On the technique in general: Formazan colour is commonly taken as a measure of viable cells.
Series [2] can be described thus: Reversal of multidrug resistance in human KBV Cells assessed as increase in PTX-induced cytotoxicity by measuring cell survival rate at 10 uM incubated for 72 hrs in presence of paclitaxel by MTT assay relative to control. As to conditions: read-out: Survival. Type of series: functional.
The nature of series [3]: Reversal of multidrug resistance in human KBV Cells assessed as increase in PTX-induced cytotoxicity by measuring cell survival rate at 5 uM incubated for 72 hrs in presence of paclitaxel by MTT assay relative to control. Type of series: functional. The settings on record: read-out: Survival.
Series [4] can be described thus: Reversal of multidrug resistance in human KBV Cells assessed as reversal fold of paclitaxel IC50 at 5 uM incubated for 72 hrs in presence of paclitaxel by MTT assay. Type of series: functional.
Series [5] can be described thus: Reversal of multidrug resistance in human KBV Cells assessed as reversal fold of paclitaxel IC50 at 10 uM incubated for 72 hrs in presence of paclitaxel by MTT assay. In kind it is functional.
Series [6] can be described thus: Drug accumulation in human KB cells at 10 uM incubated for 4 hrs by LC-MS/MS analysis. In kind it is ADME, cell-based.
Series [7] is described as follows: Drug accumulation in human KBV cells at 10 uM incubated for 4 hrs by LC-MS/MS analysis. In kind it is ADME, cell-based.
Series [8] can be described thus: Induction of cell cycle arrest in human KBV cells assessed as accumulation of cells at Sub-G1 phase at 10 uM incubated for 24 hrs by flow cytometry analysis (reference value: 1.24 +/- 0.14%). Type of series: functional. Background: Flow cytometry measures light scatter and fluorescence of single cells or particles in a stream.
Series [9] can be described thus: Induction of cell cycle arrest in human KBV cells assessed as accumulation of cells at G1-G0 phase at 10 uM incubated for 24 hrs by flow cytometry analysis (reference value: 62.34 +/- 0.24%). Type of series: functional.
A short description of series [10]: Induction of cell cycle arrest in human KBV cells assessed as accumulation of cells at S phase at 10 uM incubated for 24 hrs by flow cytometry analysis (reference value: 12.42 +/- 0.41%). Type of series: functional.
Series [11] can be described thus: Induction of cell cycle arrest in human KBV cells assessed as accumulation of cells at G2-M phase at 10 uM incubated for 24 hrs by flow cytometry analysis (reference value: 24.94 +/- 0.21%). In kind it is functional.
Series [12] in a line: Induction of Ptx-mediated cell cycle arrest in human KBV cells assessed as accumulation of cells at Sub-G1 phase at 10 uM incubated for 24 hrs in presence of paclitaxel by flow cytometry analysis (reference value: 1.21 +/- 0.3%). Type of series: functional.
Series [13] is described as follows: Induction of Ptx-mediated cell cycle arrest in human KBV cells assessed as accumulation of cells at G1-G0 phase at 10 uM incubated for 24 hrs in presence of paclitaxel by flow cytometry analysis (Rvb =57.76 +/- 0.78%). In kind it is functional.
A short description of series [14]: Induction of Ptx-mediated cell cycle arrest in human KBV cells assessed as accumulation of cells at S phase at 10 uM incubated for 24 hrs in presence of paclitaxel by flow cytometry analysis (Rvb =16.63 +/- 0.4%). Type of series: functional.
Series [15] is described as follows: Induction of Ptx-mediated cell cycle arrest in human KBV cells assessed as accumulation of cells at G2-M phase at 10 uM incubated for 24 hrs in presence of paclitaxel by flow cytometry analysis (Rvb =25.34 +/- 0.92%). Type of series: functional.

For the compound `CC(C)(C)OC(=O)C[C@H](NC(=O)OC(C)(C)C)C(=O)N[C@H]1CC[C@]2(C)[C@H]3C[C@@H](O)[C@@H]4[C@@H]([C@]5(C)CC[C@@H](C(C)(C)O)O5)CC[C@@]4(C)[C@]3(C)CC[C@H]2C1(C)C`, the viability at 10 µM in series [1] was 94%; in [2], 28%. Further, in series [3], the viability at 5 µM was 33%. Further, the figures for the “fold change (FC)” value in series [4] and in series [5] were 61 and 130, respectively. The Drug uptake result in series [6] and in series [7] was “Not Active” in each case.

For `COc1ccc(CCN(C)CCCC(C#N)(c2ccc(OC)c(OC)c2)C(C)C)cc1OC` (stereo not drawn), the viability at 10 µM in series [2] came out at 41%. Besides, the Activity was found to be 1.07% in series [8]; 58.36% in series [9]; 14.59% in [10]; 26.78% in series [11]; 8.56% in series [12]; 39.76% in [13]. Besides, the values for the Activity in [14] and in series [15] were 21.71% and 37.67%, respectively.

Regarding `CC(C)(C)OC(=O)NCCCCCC(=O)N[C@H]1CC[C@]2(C)[C@H]3C[C@@H](O)[C@@H]4C([C@]5(C)CC[C@H](C(C)(C)O)O5)CC[C@@]4(C)[C@]3(C)CC[C@H]2C1(C)C` (stereo partly drawn), the results for the viability at 10 µM in [1] and in series [2] were 98% and 36%, respectively. For the same compound, the viability at 5 µM in series [3] was found to be 44%. In addition, the Drug uptake result in [6] and in [7] was “Not Active” in each case.

With `CC(C)(C)OC(=O)N[C@@H](Cc1ccccc1)C(=O)N[C@H]1CC[C@]2(C)[C@H]3C[C@@H](O)[C@@H]4[C@@H]([C@]5(C)CC[C@@H](C(C)(C)O)O5)CC[C@@]4(C)[C@]3(C)CC[C@H]2C1(C)C`, the viability at 10 µM in series [1] amounted to 102%; in [2], 24%. In [3], the viability at 5 µM was 31%. The results for the “fold change (FC)” value in series [4] and in [5] were 21 and 49, respectively.

Take `CC(C)(C)OC(=O)N[C@@H](Cc1ccc(OC(C)(C)C)cc1)C(=O)N[C@H]1CC[C@]2(C)[C@H]3C[C@@H](O)[C@@H]4[C@@H]([C@]5(C)CC[C@@H](C(C)(C)O)O5)CC[C@@]4(C)[C@]3(C)CC[C@H]2C1(C)C`: the viability at 10 µM in series [1] came out at 85%; in [2], 19%. Also, the viability at 5 µM in series [3] stood at 30%. For the same compound, the “fold change (FC)” value in series [4] is reported as 35; in series [5], 209. Besides, the Drug uptake result in series [6] and in [7] was “Not Active” in each case.

As to `CC(C)[C@H](N)C(=O)N[C@H]1CC[C@]2(C)[C@H]3C[C@@H](O)[C@@H]4[C@@H]([C@]5(C)CC[C@H](C(C)(C)O)O5)CC[C@@]4(C)[C@]3(C)CC[C@H]2C1(C)C`, the figures for the viability at 10 µM in series [1] and in series [2] were 74% and 32%, respectively. In [3], the viability at 5 µM worked out at 34%. The results for the “fold change (FC)” value in series [4] and in series [5] were 36 and 46, respectively.
